Reference: the kinase profiling compilation of Christmann-Franck et al. (2016)

How the values were obtained:
Experiment in all cases: radiometric filter-binding kinase assay, Kinase HotSpot
Settings in all cases: compound 0.5 µM; ATP 10 µM
CDK4 CCND3 (human) = CDK4 CCND3 (human) (UniProt P30281+P11802)
PLK2 (human) = PLK2 (human) (UniProt Q9NYY3)
FGFR2 (human) = FGFR2 (human) (UniProt P21802)
MAPKAPK2 (human) = MAPKAPK2 (human) (UniProt P49137)
PTK6 (human) = PTK6 (human) (UniProt Q13882)
STK10 (human) = STK10 (human) (UniProt O94804)
MYLK2 (human) = MYLK2 (human) (UniProt Q9H1R3)
SRPK3 (human) = SRPK3 (human) (UniProt Q9UPE1)
IRAK1 (human) = IRAK1 (human) (UniProt P51617)
Chain of IRAK1 (human) (P51617 whole entry, looked up): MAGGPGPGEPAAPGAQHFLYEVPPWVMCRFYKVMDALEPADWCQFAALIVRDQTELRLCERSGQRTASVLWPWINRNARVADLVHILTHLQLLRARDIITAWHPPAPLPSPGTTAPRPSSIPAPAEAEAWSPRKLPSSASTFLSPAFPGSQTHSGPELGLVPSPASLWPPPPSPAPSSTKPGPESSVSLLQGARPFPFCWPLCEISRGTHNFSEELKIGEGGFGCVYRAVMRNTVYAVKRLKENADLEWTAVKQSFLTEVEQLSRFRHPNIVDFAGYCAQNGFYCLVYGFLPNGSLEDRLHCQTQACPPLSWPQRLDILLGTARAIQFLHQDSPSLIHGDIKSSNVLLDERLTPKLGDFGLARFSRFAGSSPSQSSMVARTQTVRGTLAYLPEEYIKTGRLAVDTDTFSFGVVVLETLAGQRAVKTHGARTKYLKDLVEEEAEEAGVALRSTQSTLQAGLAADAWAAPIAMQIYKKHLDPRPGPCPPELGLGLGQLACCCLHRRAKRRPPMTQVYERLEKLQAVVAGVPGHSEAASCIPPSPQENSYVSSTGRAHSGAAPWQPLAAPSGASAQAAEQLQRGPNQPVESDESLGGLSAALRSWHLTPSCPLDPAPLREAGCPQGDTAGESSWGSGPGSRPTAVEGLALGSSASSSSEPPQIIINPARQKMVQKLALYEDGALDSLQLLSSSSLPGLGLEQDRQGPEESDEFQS

PRKD2 (human) = PRKD2 (human) (UniProt Q9BZL6)
Chain of PRKD2 (human) (Q9BZL6 whole entry, looked up): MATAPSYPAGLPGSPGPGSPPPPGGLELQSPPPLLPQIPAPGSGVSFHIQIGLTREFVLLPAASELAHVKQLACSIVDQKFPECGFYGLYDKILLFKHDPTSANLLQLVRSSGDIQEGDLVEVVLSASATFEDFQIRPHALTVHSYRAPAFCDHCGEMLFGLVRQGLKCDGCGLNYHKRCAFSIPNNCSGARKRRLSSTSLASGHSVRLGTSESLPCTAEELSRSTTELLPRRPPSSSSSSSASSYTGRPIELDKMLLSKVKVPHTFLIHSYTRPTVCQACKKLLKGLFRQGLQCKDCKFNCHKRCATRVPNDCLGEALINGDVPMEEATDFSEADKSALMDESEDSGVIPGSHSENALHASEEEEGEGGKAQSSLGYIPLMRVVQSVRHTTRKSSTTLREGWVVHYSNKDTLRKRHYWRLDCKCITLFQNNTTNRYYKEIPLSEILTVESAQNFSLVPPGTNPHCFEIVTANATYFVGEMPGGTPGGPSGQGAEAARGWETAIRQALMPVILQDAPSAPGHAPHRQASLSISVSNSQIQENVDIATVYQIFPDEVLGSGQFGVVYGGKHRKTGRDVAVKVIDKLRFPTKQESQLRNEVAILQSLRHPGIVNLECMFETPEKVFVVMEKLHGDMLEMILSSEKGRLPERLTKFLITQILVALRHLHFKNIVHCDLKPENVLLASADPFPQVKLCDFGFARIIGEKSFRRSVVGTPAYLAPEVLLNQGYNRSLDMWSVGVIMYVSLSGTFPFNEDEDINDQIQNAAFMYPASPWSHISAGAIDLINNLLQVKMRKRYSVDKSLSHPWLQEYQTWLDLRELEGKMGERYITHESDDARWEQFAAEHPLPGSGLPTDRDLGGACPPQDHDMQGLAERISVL

ITK (human) = ITK (human) (UniProt Q08881)
IGF1R (human) = IGF1R (human) (UniProt P08069)
VRK1 (human) = VRK1 (human) (UniProt Q99986)
MAPK8 (human) = MAPK8 (human) (UniProt P45983)
AKT2 (human) = AKT2 (human) (UniProt P31751)
FGFR4 (human) = FGFR4 (human) (UniProt P22455)
PRKCB2 (human) = PRKCB2 (human) (UniProt P05771)
BMX (human) = BMX (human) (UniProt P51813)
DMPK (human) = DMPK (human) (UniProt Q09013)
STK24 (human) = STK24 (human) (UniProt Q9Y6E0)
DCLK2 (human) = DCLK2 (human) (UniProt Q8N568)
SRC (human) = SRC (human) (UniProt P12931)
HIPK3 (human) = HIPK3 (human) (UniProt Q9H422)
CDK7 CCNH MNAT1 (human) = CDK7 CCNH MNAT1 (human) (UniProt P50613+P51948+P51946)
DDR2 (human) = DDR2 (human) (UniProt Q16832)
Chain of DDR2 (human) (Q16832 whole entry, looked up): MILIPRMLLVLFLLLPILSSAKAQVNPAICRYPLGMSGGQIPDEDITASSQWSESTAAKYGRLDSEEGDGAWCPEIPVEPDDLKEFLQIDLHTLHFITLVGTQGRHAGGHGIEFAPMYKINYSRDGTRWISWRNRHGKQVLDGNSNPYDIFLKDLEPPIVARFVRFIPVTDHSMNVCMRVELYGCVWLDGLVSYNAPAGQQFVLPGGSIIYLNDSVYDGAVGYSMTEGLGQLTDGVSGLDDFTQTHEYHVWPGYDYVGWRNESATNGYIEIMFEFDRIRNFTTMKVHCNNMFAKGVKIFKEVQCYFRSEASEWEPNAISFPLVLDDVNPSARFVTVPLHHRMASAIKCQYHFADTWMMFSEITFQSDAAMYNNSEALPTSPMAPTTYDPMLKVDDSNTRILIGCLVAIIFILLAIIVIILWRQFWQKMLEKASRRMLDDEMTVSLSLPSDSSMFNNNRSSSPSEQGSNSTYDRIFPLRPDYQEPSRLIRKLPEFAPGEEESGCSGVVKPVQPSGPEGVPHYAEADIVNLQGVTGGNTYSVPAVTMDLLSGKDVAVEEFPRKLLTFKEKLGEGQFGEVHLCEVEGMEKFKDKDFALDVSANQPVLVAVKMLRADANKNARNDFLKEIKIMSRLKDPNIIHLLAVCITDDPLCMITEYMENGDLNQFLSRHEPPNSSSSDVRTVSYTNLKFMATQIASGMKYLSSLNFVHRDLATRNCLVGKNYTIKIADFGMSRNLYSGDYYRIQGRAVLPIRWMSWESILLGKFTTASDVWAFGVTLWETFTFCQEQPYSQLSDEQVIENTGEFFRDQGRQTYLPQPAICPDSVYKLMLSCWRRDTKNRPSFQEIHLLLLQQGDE

NEK2 (human) = NEK2 (human) (UniProt P51955)
NUAK2 (human) = NUAK2 (human) (UniProt Q9H093)
Chain of NUAK2 (human) (Q9H093 whole entry, looked up): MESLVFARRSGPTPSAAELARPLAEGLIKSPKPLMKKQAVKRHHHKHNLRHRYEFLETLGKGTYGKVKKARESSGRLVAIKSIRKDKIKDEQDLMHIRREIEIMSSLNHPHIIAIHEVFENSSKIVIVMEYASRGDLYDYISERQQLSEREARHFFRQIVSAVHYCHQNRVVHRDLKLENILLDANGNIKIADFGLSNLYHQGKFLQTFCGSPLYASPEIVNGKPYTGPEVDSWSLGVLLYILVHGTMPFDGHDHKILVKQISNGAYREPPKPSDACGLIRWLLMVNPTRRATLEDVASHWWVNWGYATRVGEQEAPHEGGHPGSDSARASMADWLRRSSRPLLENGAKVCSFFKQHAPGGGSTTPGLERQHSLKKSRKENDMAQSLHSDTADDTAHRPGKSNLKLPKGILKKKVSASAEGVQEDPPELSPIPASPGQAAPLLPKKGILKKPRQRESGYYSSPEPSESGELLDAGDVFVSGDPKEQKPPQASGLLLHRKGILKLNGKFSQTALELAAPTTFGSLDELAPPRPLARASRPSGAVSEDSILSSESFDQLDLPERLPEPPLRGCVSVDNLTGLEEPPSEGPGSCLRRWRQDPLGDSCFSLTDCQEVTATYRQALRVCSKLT

EPHB1 (human) = EPHB1 (human) (UniProt P54762)
TAOK2 (human) = TAOK2 (human) (UniProt Q9UL54)
Chain of TAOK2 (human) (Q9UL54 whole entry, looked up): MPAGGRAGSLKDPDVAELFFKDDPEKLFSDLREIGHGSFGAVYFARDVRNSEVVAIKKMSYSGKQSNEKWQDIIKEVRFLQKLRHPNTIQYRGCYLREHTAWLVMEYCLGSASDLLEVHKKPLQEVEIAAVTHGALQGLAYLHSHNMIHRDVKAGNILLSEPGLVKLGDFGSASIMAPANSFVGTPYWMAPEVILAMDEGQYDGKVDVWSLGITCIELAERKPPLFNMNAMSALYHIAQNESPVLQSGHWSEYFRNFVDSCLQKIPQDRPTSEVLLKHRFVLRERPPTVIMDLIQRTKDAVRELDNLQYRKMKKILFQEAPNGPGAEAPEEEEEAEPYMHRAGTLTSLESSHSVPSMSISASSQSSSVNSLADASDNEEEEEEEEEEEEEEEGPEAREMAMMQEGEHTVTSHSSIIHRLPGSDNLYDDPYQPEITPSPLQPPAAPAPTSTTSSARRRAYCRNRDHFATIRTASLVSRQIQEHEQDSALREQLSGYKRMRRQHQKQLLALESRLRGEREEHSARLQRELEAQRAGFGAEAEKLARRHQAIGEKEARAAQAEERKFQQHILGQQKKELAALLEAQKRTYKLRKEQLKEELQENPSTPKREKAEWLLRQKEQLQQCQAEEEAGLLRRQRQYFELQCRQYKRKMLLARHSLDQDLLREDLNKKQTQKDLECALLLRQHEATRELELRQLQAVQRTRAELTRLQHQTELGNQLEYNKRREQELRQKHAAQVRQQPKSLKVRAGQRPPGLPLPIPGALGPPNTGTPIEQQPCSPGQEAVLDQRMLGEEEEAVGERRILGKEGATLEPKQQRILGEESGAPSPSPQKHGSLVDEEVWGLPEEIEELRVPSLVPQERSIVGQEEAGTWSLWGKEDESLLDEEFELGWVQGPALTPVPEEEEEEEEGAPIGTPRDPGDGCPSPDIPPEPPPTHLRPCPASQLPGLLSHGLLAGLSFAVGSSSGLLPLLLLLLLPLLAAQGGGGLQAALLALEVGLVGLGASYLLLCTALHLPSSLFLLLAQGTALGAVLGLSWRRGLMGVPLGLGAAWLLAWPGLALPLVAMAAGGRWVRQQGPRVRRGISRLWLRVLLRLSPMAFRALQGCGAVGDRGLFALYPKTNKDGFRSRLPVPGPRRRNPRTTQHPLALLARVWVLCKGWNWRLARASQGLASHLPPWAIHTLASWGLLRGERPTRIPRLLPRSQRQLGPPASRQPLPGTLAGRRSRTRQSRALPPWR

MAPK9 (human) = MAPK9 (human) (UniProt P45984)
CDK4 CCND1 (human) = CDK4 CCND1 (human) (UniProt P24385+P11802)
PRKCD (human) = PRKCD (human) (UniProt Q05655)
MKNK2 (human) = MKNK2 (human) (UniProt Q9HBH9)
CSNK1E (human) = CSNK1E (human) (UniProt P49674)
SYK (human) = SYK (human) (UniProt P43405)
TSSK2 (human) = TSSK2 (human) (UniProt Q96PF2)
BTK (human) = BTK (human) (UniProt Q06187)
HCK (human) = HCK (human) (UniProt P08631)
STK3 (human) = STK3 (human) (UniProt Q13188)
Chain of STK3 (human) (Q13188 whole entry, looked up): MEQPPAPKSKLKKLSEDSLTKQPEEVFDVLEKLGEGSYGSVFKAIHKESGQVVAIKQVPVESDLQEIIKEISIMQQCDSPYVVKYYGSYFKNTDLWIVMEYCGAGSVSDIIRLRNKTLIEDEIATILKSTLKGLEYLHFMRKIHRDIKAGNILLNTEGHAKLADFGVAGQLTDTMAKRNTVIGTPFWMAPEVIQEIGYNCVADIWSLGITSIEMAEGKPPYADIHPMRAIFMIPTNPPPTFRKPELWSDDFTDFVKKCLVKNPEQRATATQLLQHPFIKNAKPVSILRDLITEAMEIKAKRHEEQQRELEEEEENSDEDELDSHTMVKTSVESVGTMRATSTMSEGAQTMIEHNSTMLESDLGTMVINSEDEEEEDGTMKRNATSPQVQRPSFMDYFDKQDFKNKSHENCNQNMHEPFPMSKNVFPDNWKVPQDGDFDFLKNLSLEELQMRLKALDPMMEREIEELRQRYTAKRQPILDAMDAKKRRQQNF

EPHA8 (human) = EPHA8 (human) (UniProt P29322)
BLK (human) = BLK (human) (UniProt P51451)
MAPK12 (human) = MAPK12 (human) (UniProt P53778)

## CCCCc1c(-c2ccc(O)cc2)[nH]c2nccnc12
CDK4 CCND3 (human)
  residual activity: 71%
PLK2 (human)
  residual activity: 83.9%
FGFR2 (human)
  residual activity: 94.5%
MAPKAPK2 (human)
  residual activity: 92.6%
PTK6 (human)
  residual activity: 29.7%
STK10 (human)
  residual activity: 82.8%
MYLK2 (human)
  residual activity: 95.7%
SRPK3 (human)
  residual activity: 98.6%
IRAK1 (human)
  residual activity: 63.4%
PRKD2 (human)
  residual activity: 95.3%
ITK (human)
  residual activity: 104%
IGF1R (human)
  residual activity: 87.3%
VRK1 (human)
  residual activity: 87.9%
MAPK8 (human)
  residual activity: 81.9%
AKT2 (human)
  residual activity: 95.3%
FGFR4 (human)
  residual activity: 91.8%
PRKCB2 (human)
  residual activity: 118%
BMX (human)
  residual activity: 86.8%
DMPK (human)
  residual activity: 91.8%
STK24 (human)
  residual activity: 83.6%
DCLK2 (human)
  residual activity: 99.7%
SRC (human)
  residual activity: 65.2%
HIPK3 (human)
  residual activity: 100%
CDK7 CCNH MNAT1 (human)
  residual activity: 88.2%
DDR2 (human)
  residual activity: 96%
NEK2 (human)
  residual activity: 106%
NUAK2 (human)
  residual activity: 64.8%
EPHB1 (human)
  residual activity: 78%
TAOK2 (human)
  residual activity: 62.7%
MAPK9 (human)
  residual activity: 90.2%
CDK4 CCND1 (human)
  residual activity: 66.4%
PRKCD (human)
  residual activity: 102%
MKNK2 (human)
  residual activity: 107%
CSNK1E (human)
  residual activity: 102%
SYK (human)
  residual activity: 53.5%
TSSK2 (human)
  residual activity: 96.7%
BTK (human)
  residual activity: 61.7%
HCK (human)
  residual activity: 91.1%
STK3 (human)
  residual activity: 76.6%
EPHA8 (human)
  residual activity: 97.4%
BLK (human)
  residual activity: 85%

## c1ccc(-c2cnc(Nc3ccc(OCCN4CCCC4)cc3)s2)cc1
CDK4 CCND3 (human)
  residual activity: 84.9%
PLK2 (human)
  residual activity: 105%
FGFR2 (human)
  residual activity: 92.7%
PTK6 (human)
  residual activity: 80.8%
STK10 (human)
  residual activity: 76.9%
MYLK2 (human)
  residual activity: 28.7%
SRPK3 (human)
  residual activity: 98.2%
IRAK1 (human)
  residual activity: 109%
PRKD2 (human)
  residual activity: 82.2%
ITK (human)
  residual activity: 85.2%
IGF1R (human)
  residual activity: 112%
VRK1 (human)
  residual activity: 89.1%
MAPK8 (human)
  residual activity: 92.4%
AKT2 (human)
  residual activity: 92.4%
FGFR4 (human)
  residual activity: 95.6%
PRKCB2 (human)
  residual activity: 104%
BMX (human)
  residual activity: 84.5%
DMPK (human)
  residual activity: 110%
STK24 (human)
  residual activity: 99.6%
DCLK2 (human)
  residual activity: 87.6%
SRC (human)
  residual activity: 75.3%
HIPK3 (human)
  residual activity: 64.8%
CDK7 CCNH MNAT1 (human)
  residual activity: 102%
DDR2 (human)
  residual activity: 86.6%
NEK2 (human)
  residual activity: 90.6%
NUAK2 (human)
  residual activity: 107%
EPHB1 (human)
  residual activity: 95.4%
TAOK2 (human)
  residual activity: 70.7%
MAPK9 (human)
  residual activity: 144%
CDK4 CCND1 (human)
  residual activity: 61.2%
PRKCD (human)
  residual activity: 91.3%
MKNK2 (human)
  residual activity: 18.6%
CSNK1E (human)
  residual activity: 81.2%
SYK (human)
  residual activity: 89.2%
TSSK2 (human)
  residual activity: 89%
BTK (human)
  residual activity: 101%
MAPK12 (human)
  residual activity: 93.6%
HCK (human)
  residual activity: 98.6%
STK3 (human)
  residual activity: 108%
EPHA8 (human)
  residual activity: 96.2%
BLK (human)
  residual activity: 92%

## CN[C@@H]1C[C@H]2O[C@@](C)([C@@H]1OC)n1c3ccccc3c3c4c(c5c6ccccc6n2c5c31)C(=O)NC4
ITK (human)
  residual activity: 2.89%
DMPK (human)
  residual activity: 4.83%
SRC (human)
  residual activity: 1.46%
EPHB1 (human)
  residual activity: 12%
HCK (human)
  residual activity: 3.26%
EPHA8 (human)
  residual activity: 25.7%

## O=S(=O)(NCCNC/C=C/c1ccc(Br)cc1)c1cccc2cnccc12
CDK4 CCND3 (human)
  residual activity: 106%
FGFR2 (human)
  residual activity: 95.1%
PTK6 (human)
  residual activity: 94.2%
STK10 (human)
  residual activity: 89.2%
MYLK2 (human)
  residual activity: 96.5%
SRPK3 (human)
  residual activity: 98%
IRAK1 (human)
  residual activity: 95.7%
PRKD2 (human)
  residual activity: 75.9%
ITK (human)
  residual activity: 86.8%
IGF1R (human)
  residual activity: 104%
VRK1 (human)
  residual activity: 80.1%
MAPK8 (human)
  residual activity: 92.7%
AKT2 (human)
  residual activity: 75.4%
FGFR4 (human)
  residual activity: 85.3%
PRKCB2 (human)
  residual activity: 90.2%
BMX (human)
  residual activity: 102%
DMPK (human)
  residual activity: 96.6%
STK24 (human)
  residual activity: 72%
DCLK2 (human)
  residual activity: 90.1%
SRC (human)
  residual activity: 90.1%
HIPK3 (human)
  residual activity: 81.7%
CDK7 CCNH MNAT1 (human)
  residual activity: 82.8%
DDR2 (human)
  residual activity: 93.8%
NEK2 (human)
  residual activity: 97.1%
NUAK2 (human)
  residual activity: 78.1%
EPHB1 (human)
  residual activity: 106%
TAOK2 (human)
  residual activity: 90.7%
MAPK9 (human)
  residual activity: 93.4%
CDK4 CCND1 (human)
  residual activity: 93.9%
PRKCD (human)
  residual activity: 38.1%
MKNK2 (human)
  residual activity: 78.7%
CSNK1E (human)
  residual activity: 107%
SYK (human)
  residual activity: 77.7%
TSSK2 (human)
  residual activity: 104%
BTK (human)
  residual activity: 97.4%
HCK (human)
  residual activity: 99.4%
STK3 (human)
  residual activity: 65.6%
EPHA8 (human)
  residual activity: 118%
BLK (human)
  residual activity: 82.4%
